Where “and” joins values, the source holds several entries; their conditions need not be identical. Equal entries are not always repeated.

One may read the inhibition as the relative decrease from the control value, in per cent. Broadly, the IC50 is the concentration needed to halve the response being measured. A high value points to a need for much substance.

Assay [1] deals with T1, MMNAT (Mycobacterium marinum, UniProt B2HIZ6). Kind of assay: Reversibility of inhibition by dialysis. It is filed as biochemical, M. marinum. To be noted: 15-fold molar excess, 1 h at 24°C, dialysis 16 h at 4°C. On the procedure:
(§1) Figure 3 Reversibility of the inhibition of TBNAT and MMNAT by compound 1. Each enzyme (MMNAT, TBNAT, 0.07 mM, 50 µL) was preincubated either alone or with 15-fold molar excess 1 at 24°C for 1 h. Each sample was then dialysed against 1 L fresh assay buffer (20 mM Tris-HCl pH 8) at 4°C for 16 h. The enzyme activities of the samples were measured before dialysis and then measured after dialysis by measuring the rate of Ac-CoA hydrolysis in the presence of HLZ as described in Methods. The mean ± S.D. of three measurements of the activity is shown. Loss of enzyme activity upon dialysis is likely to be due to the oxidation of the active site sulfhydryl group, especially since dialysis was performed in the absence of dithiothreitol.
(§2) For the reversibility studies, excess inhibitor was […] by dialysis. Each enzyme (0.07 mM MMNAT or TBNAT in 20 mM Tris-HCl pH 8 and 5% (v/v) DMSO) was preincubated either alone or with 15-fold molar excess of compound 1 in a final volume of 50 µL at 24°C for 1 h. Each sample was then dialysed against 1 L fresh assay buffer (20 mM Tris-HCl pH 8) at 4°C for 16 h. The enzyme activities of the samples were measured before dialysis and then measured after dialysis by measuring the rate of Ac-CoA (120 µM) hydrolysis in the presence of 150 µM HLZ.

Assay [2] concerns the target T1, MMNAT. Kind of assay: NAT-inhibition assay (Ac-CoA hydrolysis with hydralazine, Ellman's reagent). Type of assay: biochemical, M. marinum. As to conditions: 150 µM HLZ, 120 µM Ac-CoA, 24°C. As to the method:
An assay for measuring the formation of CoA was used to determine the activity of the enzyme in the presence of potential inhibitors. All the tested compounds were dissolved in dimethylsulphoxide (DMSO) and all reactions were carried out in the presence of 5% (v/v) DMSO. The enzyme (100–150 ng) was mixed with the inhibitors 1–5 (5 µL at a final concentration of 0–250 µM) and incubated for 15 min at 24°C prior to starting the reaction by adding 15 µL hydralazine and 12 µL Ac-CoA at final concentrations of 150 µM and 120 µM respectively, in a final total volume of 100 µL of 20 mM Tris-HCl pH 8. The assay was performed as an end-point read out measurement by stopping the reaction after 10 min at 24°C using 25 µL Ellman's reagent (5 mM 5,5′-dithiobis-(2-nitrobenzoate) solution in 6.4 M guanidine-HCl and 100 mM Tris-HCl, pH 7.3). The absorbance was measured at a wavelength of 405 nm within 2 min (Tecan Sunrise Plate Reader). The assays were repeated using a 10-fold enzyme concentration to exclude promiscuous non-specific inhibitors. The activity of the enzyme in the presence of 5% (v/v) DMSO was measured as a control. Inhibition values were determined as the ratio of the enzyme activity (expressed as the rate of CoA formation per microgram protein (µM/min.µg)) with the requisite compound, to the activity of the control without inhibitor. IC50 values were determined from the inhibition curves which were obtained by non-linear fitting of the % inhibition and the inhibitor concentration (µM) using the Log(inhibitor) vs. response module of GraphPad Prism 5.0.
In general terms: DTNB colorimetry detects thiols as they appear.

Another assay addresses T2, TBNAT (Mycobacterium tuberculosis, UniProt P9WJI5).
T2 construct: made in house
Kind of assay: Reversibility of inhibition by dialysis. Type of assay: biochemical, M. tuberculosis. To be noted: 15-fold molar excess, 1 h at 24°C, dialysis 16 h at 4°C. On the procedure:
as §1, §2

Assay [3] concerns the target T1, MMNAT. Kind of assay: ESI-MS analysis of covalent enzyme-inhibitor adducts. It is filed as binding, M. marinum. As to conditions: enzyme-to-inhibitor ratio 1∶1. As to the method:
ESI-MS was performed as described previously. A sample of 2.5 mg/mL (80 µM) MMNAT was analyzed on a Micromass LCT mass spectrometer. The samples were pretreated with DMSO or 0.08–1.2 mM inhibitor dissolved in DMSO to a final percentage of 5% (v/v) DMSO and incubated for 30–60 min before analysis. ESI-MS analysis was performed in positive ion mode after denaturation in 50% v/v acetonitrile in water with an accuracy of ±0.1%. The sample was run over a desalting column prior to MS analysis.

T1 sequence (B2HIZ6 entry or part of it): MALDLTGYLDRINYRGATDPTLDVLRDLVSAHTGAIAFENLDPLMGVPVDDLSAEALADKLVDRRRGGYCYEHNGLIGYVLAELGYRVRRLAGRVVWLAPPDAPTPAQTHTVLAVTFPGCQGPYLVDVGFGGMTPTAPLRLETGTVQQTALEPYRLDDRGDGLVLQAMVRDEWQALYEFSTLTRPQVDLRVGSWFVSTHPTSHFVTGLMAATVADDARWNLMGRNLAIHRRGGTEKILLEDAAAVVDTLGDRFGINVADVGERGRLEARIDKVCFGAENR
T2 sequence (P9WJI5 whole entry): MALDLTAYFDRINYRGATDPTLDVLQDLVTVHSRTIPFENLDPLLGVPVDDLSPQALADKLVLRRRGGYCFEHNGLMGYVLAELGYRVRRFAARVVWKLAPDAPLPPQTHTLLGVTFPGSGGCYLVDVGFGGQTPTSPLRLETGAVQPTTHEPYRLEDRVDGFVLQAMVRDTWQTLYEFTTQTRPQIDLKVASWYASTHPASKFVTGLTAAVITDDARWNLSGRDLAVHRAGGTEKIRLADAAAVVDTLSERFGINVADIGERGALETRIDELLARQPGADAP

`CN1CCC(O)(c2ccccc2)C(C(=O)c2ccccc2)C1` (stereo not drawn) [compound 1, (4-hydroxy-1-methyl-4-phenylpiperidin-3-yl)(phenyl)methanone]: the “restoration of enzyme activity by dialysis (MMNAT)” value on MMNAT [1] is given as “completely ineffective in restoring the activity”. For the same molecule, the inhibition at 50 µM on MMNAT [2] (50 µM inhibitor, mean ± S.D. of triplicate, read-out: MMNAT % Inhibition) is 105 ± 1%. Moreover, inhibition at MMNAT [2] (mean ± S.D.) was half-maximal at 1.3 µM (IC50). Besides, the “restoration of enzyme activity by dialysis (TBNAT)” value at TBNAT is “completely ineffective in restoring the activity”. Further, the “Δm of enzyme-inhibitor adduct (MMNAT)” value on MMNAT [3] (24°C, 30–60 min) is 132 Da and 132.6 Da. In addition, on MMNAT [3] (proposed number of inhibition species bound per protein molecule), the “Molar ratio (inhibitor/protein) (MMNAT)” value is reported as 1.

Values taken from publication PMC3532304, “Piperidinols That Show Anti-Tubercular Activity as Inhibitors of Arylamine N-Acetyltransferase: An Essential Enzyme for Mycobacterial Survival Inside Macrophages” (PLoS ONE, 2012).
